Key:
[1] = target: Dual specificity mitogen-activated protein kinase kinase 6 (Homo sapiens) (UniProt P52564)
[2] = target: Serine/threonine-protein kinase TNNI3K (Homo sapiens) (UniProt Q59H18)
[3] = target: Mast/stem cell growth factor receptor Kit (Homo sapiens) (UniProt P10721)
[4] = target: Dual specificity mitogen-activated protein kinase kinase 3 (Homo sapiens) (UniProt P46734)
[5] = target: Serine/threonine-protein kinase WNK1 (Homo sapiens) (UniProt Q9H4A3)
[6] = target: Dual specificity tyrosine-phosphorylation-regulated kinase 1A (Homo sapiens) (UniProt Q13627)
[7] = target: ALK tyrosine kinase receptor (Homo sapiens) (UniProt Q9UM73)
[8] = target: Eukaryotic translation initiation factor 2-alpha kinase 1 (Homo sapiens) (UniProt Q9BQI3)
Sequence of Eukaryotic translation initiation factor 2-alpha kinase 1 (Homo sapiens) (Q9BQI3 whole entry): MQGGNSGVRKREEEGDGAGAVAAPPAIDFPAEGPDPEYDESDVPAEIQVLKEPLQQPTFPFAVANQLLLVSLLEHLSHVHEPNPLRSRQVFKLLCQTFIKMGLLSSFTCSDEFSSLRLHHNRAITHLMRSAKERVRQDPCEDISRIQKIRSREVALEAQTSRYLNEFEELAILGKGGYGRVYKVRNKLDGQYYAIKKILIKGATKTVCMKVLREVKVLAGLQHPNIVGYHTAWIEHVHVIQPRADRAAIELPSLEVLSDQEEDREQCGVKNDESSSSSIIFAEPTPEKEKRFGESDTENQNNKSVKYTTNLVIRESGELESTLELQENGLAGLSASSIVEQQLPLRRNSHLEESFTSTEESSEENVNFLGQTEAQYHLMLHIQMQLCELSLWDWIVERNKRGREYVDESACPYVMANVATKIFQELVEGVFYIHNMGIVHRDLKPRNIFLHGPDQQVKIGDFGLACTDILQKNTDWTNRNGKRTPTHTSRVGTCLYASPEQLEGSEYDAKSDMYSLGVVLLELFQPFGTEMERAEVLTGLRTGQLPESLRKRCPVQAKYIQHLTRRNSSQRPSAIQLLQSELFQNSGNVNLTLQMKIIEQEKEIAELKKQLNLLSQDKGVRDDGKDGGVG

[9] = target: Membrane-associated tyrosine- and threonine-specific cdc2-inhibitory kinase (Homo sapiens) (UniProt Q99640)
[10] = target: Activin receptor type-1 (Homo sapiens) (UniProt Q04771)
[11] = target: 5-hydroxytryptamine receptor 1A (Homo sapiens) (UniProt P08908); conditions: Compound concentration 10.0 uM
[12] = target: 5-hydroxytryptamine receptor 1B (Homo sapiens) (UniProt P28222); conditions: Compound concentration 10.0 uM
[13] = target: Casein kinase I isoform gamma-3 (Homo sapiens) (UniProt Q9Y6M4)
[14] = target: Mitogen-activated protein kinase kinase kinase kinase 4 (Homo sapiens) (UniProt O95819)
Sequence of Mitogen-activated protein kinase kinase kinase kinase 4 (Homo sapiens) (O95819 2-1239 limits assumed): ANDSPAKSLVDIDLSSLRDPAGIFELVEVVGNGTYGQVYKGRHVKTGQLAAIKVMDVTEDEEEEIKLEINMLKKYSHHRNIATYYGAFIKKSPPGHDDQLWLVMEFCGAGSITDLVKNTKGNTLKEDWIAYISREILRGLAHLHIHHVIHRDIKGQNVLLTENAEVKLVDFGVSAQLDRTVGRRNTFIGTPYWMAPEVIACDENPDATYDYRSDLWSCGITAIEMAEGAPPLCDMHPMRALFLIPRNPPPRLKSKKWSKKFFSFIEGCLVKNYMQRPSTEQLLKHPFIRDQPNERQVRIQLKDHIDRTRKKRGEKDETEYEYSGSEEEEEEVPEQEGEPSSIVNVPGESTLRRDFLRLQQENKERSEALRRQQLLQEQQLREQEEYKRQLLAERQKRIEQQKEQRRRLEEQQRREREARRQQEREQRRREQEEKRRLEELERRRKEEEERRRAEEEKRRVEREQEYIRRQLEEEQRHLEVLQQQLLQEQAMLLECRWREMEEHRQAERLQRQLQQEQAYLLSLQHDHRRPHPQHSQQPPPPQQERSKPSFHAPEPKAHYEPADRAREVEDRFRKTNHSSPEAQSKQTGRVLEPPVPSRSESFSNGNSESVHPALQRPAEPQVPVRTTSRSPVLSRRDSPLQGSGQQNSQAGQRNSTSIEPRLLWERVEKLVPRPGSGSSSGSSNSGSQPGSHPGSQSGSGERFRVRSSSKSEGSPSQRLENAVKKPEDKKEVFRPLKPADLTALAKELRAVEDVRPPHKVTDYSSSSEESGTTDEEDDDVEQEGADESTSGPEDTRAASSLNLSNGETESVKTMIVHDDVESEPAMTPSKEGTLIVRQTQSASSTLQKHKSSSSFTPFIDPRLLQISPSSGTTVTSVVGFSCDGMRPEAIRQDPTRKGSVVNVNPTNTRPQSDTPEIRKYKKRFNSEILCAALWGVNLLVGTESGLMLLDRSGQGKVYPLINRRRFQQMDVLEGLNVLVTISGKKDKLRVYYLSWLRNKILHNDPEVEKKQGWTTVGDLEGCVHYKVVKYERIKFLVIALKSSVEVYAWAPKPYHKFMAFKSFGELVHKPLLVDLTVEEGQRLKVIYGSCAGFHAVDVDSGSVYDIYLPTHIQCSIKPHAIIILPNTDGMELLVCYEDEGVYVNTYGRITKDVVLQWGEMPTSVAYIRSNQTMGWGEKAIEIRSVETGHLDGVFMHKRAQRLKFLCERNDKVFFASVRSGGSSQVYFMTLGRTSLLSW

[15] = target: Serine/threonine-protein kinase SBK1 (Homo sapiens) (UniProt Q52WX2)
[16] = target: Serine/threonine-protein kinase Sgk1 (Homo sapiens) (UniProt O00141)
[17] = target: Serine/threonine-protein kinase Sgk2 (Homo sapiens) (UniProt Q9HBY8)
[18] = tested on: Mast/stem cell growth factor receptor Kit (Homo sapiens), P10721 [D816H]
[19] = target: Focal adhesion kinase 1 (Homo sapiens) (UniProt Q05397)
[20] = target: Cyclin-dependent kinase 11B (Homo sapiens) (UniProt P21127)
[21] = target: Inhibitor of nuclear factor kappa-B kinase subunit alpha (Homo sapiens) (UniProt O15111)
[22] = target: Vascular endothelial growth factor receptor 1 (Homo sapiens) (UniProt P17948)
[23] = target: cGMP-dependent protein kinase 1 (Homo sapiens) (UniProt Q13976)
[24] = target: Ribosomal protein S6 kinase alpha-5 (Homo sapiens) (UniProt O75582)
[25] = target: Serine/threonine-protein kinase 3 (Homo sapiens) (UniProt Q13188)
[26] = target: Macrophage-stimulating protein receptor (Homo sapiens) (UniProt Q04912)
[27] = target: Non-receptor tyrosine-protein kinase TNK1 (Homo sapiens) (UniProt Q13470)
[28] = target: Tyrosine-protein kinase ABL1 (Homo sapiens) (UniProt P00519)
[29] = tested on: Phosphatidylinositol 4,5-bisphosphate 3-kinase catalytic subunit alpha isoform (Homo sapiens), P42336 [Q546K]
[30] = target: Serine/threonine-protein kinase N2 (Homo sapiens) (UniProt Q16513)
Sequence of Serine/threonine-protein kinase N2 (Homo sapiens) (Q16513 whole entry, looked up): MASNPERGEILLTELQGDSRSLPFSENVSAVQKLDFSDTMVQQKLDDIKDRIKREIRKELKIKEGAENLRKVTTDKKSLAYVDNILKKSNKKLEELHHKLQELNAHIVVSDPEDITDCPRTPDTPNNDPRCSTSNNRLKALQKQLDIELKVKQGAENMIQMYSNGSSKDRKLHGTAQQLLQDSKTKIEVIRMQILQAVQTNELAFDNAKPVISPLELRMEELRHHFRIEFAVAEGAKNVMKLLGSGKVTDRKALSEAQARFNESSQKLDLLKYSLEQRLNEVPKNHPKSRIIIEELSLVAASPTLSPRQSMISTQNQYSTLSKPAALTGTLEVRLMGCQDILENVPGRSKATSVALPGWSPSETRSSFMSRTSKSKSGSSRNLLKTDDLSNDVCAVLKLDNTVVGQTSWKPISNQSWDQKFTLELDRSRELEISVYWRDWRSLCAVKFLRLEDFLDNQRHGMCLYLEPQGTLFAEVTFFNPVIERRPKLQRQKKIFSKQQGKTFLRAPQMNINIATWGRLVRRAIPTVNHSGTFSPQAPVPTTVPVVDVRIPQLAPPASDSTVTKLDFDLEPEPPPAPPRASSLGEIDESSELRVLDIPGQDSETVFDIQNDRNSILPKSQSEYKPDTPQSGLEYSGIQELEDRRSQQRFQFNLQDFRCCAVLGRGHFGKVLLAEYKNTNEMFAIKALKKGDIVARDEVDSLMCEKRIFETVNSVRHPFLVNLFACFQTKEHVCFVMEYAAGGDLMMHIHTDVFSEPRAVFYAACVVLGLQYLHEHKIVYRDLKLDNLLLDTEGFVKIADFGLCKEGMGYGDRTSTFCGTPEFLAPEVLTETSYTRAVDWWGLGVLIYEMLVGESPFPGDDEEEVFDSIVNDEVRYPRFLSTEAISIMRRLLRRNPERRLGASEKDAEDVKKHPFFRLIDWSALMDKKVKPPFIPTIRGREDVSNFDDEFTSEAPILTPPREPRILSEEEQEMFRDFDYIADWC

[31] = target: Cyclin-dependent kinase 2 (Homo sapiens) (UniProt P24941)
Angiopoietin-1 receptor = Angiopoietin-1 receptor (Homo sapiens, UniProt Q02763)
[32] = target: Ephrin type-A receptor 2 (Homo sapiens) (UniProt P29317)
[33] = target: Mitogen-activated protein kinase kinase kinase kinase 3 (Homo sapiens) (UniProt Q8IVH8)
[34] = target: Ephrin type-A receptor 6 (Homo sapiens) (UniProt Q9UF33)
Sequence of Ephrin type-A receptor 6 (Homo sapiens) (Q9UF33 whole entry): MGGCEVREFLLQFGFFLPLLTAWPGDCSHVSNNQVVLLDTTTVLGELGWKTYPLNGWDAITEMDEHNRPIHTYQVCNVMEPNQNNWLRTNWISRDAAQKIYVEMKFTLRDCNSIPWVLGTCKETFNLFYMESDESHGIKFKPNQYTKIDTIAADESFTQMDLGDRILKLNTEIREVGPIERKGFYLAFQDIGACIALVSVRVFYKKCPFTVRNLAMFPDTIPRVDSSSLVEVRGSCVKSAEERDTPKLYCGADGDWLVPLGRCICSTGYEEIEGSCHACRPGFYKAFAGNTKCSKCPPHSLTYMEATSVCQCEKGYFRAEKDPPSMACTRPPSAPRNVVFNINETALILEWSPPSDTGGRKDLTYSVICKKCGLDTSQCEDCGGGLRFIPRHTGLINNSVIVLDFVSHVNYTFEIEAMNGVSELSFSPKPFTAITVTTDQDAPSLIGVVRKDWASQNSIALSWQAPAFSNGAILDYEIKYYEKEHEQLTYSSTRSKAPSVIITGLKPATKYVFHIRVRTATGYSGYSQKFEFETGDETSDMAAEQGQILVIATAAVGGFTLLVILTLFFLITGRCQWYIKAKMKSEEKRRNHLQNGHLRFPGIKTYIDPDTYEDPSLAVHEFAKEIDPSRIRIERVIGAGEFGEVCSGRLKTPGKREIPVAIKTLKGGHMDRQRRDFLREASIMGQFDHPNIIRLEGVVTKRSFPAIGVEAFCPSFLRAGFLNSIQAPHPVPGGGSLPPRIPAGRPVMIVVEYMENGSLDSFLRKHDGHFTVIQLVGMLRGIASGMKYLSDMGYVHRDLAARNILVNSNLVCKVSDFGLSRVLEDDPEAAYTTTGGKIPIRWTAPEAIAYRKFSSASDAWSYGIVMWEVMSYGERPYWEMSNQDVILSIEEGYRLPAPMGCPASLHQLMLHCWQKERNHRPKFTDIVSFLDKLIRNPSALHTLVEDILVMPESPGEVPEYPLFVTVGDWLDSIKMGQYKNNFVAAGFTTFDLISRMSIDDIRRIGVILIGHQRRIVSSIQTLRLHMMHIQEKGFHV

[35] = NanoBRET assay (SGC Frankfurt) with LYN; conditions: Homo sapiens
[36] = target: Serine/threonine-protein kinase WNK3 (Homo sapiens) (UniProt Q9BYP7)
[37] = target: Interleukin-1 receptor-associated kinase 3 (Homo sapiens) (UniProt Q9Y616)
[38] = target: Vascular endothelial growth factor receptor 2 (Homo sapiens, UniProt P35968)
[39] = target: Serine/threonine-protein kinase ULK1 (Homo sapiens) (UniProt O75385)
[40] = target: Protein kinase C iota type (Homo sapiens) (UniProt P41743)
[41] = tested on: Tyrosine-protein kinase ABL1 (Homo sapiens), P00519 [H396P]
[42] = target: Casein kinase II subunit alpha' (Homo sapiens) (UniProt P19784)
[43] = target: BMP-2-inducible protein kinase (Homo sapiens) (UniProt Q9NSY1)
Sequence of BMP-2-inducible protein kinase (Homo sapiens) (Q9NSY1 whole entry, looked up): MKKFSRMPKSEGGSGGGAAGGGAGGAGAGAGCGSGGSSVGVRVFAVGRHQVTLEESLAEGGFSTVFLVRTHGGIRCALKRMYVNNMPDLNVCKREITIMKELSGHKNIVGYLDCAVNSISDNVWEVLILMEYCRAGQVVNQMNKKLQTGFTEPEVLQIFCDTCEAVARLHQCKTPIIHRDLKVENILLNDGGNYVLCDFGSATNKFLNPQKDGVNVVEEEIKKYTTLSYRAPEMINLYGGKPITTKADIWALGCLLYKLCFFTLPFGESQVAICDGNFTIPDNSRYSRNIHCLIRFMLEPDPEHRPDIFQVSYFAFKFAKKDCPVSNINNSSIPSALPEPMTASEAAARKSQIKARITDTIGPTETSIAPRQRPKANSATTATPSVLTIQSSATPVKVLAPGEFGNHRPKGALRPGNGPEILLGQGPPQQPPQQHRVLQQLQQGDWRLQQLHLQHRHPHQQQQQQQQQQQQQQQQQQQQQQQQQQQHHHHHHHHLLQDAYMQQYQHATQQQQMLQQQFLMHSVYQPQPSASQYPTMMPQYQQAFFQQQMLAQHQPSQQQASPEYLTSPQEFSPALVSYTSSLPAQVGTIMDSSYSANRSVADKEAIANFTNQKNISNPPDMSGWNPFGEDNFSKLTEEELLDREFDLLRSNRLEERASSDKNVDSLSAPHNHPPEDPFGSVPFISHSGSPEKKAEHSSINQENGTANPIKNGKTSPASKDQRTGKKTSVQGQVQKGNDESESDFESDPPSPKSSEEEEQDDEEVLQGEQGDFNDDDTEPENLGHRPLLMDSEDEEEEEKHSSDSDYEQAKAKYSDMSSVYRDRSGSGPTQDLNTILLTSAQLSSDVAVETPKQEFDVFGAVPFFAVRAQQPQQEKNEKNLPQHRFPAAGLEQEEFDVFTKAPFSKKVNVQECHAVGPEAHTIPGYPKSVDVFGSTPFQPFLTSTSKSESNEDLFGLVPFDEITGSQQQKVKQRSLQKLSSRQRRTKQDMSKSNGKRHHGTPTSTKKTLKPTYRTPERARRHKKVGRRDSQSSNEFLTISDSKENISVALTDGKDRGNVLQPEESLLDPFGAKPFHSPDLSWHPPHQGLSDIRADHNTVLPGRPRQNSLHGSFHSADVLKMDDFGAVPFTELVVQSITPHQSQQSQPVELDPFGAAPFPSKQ

[44] = tested on: Receptor-type tyrosine-protein kinase FLT3 (Homo sapiens), P36888 [K663Q]
[45] = Compound concentration 1000.0 nM
[46] = Compound concentration 100.0 nM

Cc1cc(NC(=O)c2cccc(S(F)(F)(F)(F)F)c2)cc(-n2ccn3nc(-c4cccnc4)cc23)c1 [BAY-309]
residual activity [1, 45]: 100%
residual activity [2, 45]: 100%
residual activity [3, 45]: 70.3%
residual activity [4, 45]: 62.1%
residual activity [5, 45]: 100%
residual activity [6, 45]: 100%
residual activity [7, 45]: 68.1%
residual activity [8, 45]: 100%
residual activity [9, 45]: 100%
residual activity [10, 45]: 100%
inhibition [11]: 39.9%
inhibition [12]: 36.8%
residual activity [13, 45]: 100%
residual activity [14, 45]: 100%
residual activity [15, 45]: 100%
residual activity [16, 45]: 81.3%
residual activity [17, 45]: 100%
residual activity [18, 45]: 73.1%
residual activity [19, 45]: 96.4%
residual activity [20, 45]: 100%
residual activity [21, 45]: 71.1%
residual activity [22, 45]: 100%
residual activity [23, 45]: 100%
residual activity [24, 45]: 100%
residual activity [25, 45]: 100%
residual activity [26, 45]: 71%
residual activity [27, 45]: 95%
residual activity [28, 45]: 52.2%
residual activity [29, 45]: 100%
residual activity [30, 45]: 100%
residual activity [31, 45]: 100%
residual activity (Angiopoietin-1 receptor; [45]): 84.2%
residual activity [32, 45]: 100%
residual activity [33, 45]: 100%
residual activity [34, 45]: 100%
EC50 [35]: > 50 µM (not active)
IC50 [35]: 7 µM (not active)
residual activity [36, 45]: 100%
residual activity [37, 45]: 100%
residual activity [38, 45]: 68.3%
residual activity [39, 45]: 100%
residual activity [40, 45]: 80.4%
residual activity [41, 45]: 100%
residual activity [42, 45]: 100%
residual activity [43, 45]: 65.9%
residual activity [44, 45]: 100%

Cc1cc(C)c(-n2ccn3nc(-c4cccnc4)cc23)cc1NC(=O)c1cc(C#N)cc(S(F)(F)(F)(F)F)c1 [BAY-826]
residual activity [1, 46]: 100%
residual activity [2, 46]: 85.8%
residual activity [3, 46]: 76.8%
residual activity [4, 46]: 81.9%
residual activity [5, 46]: 97.3%
residual activity [6, 46]: 82.8%
residual activity [7, 46]: 94.4%
residual activity [8, 46]: 100%
residual activity [9, 46]: 100%
residual activity [10, 46]: 83.3%
inhibition [11]: -6.68%
inhibition [12]: 14.4%
residual activity [13, 46]: 93.7%
residual activity [14, 46]: 95.1%
residual activity [15, 46]: 82.2%
residual activity [16, 46]: 100%
residual activity [17, 46]: 100%
residual activity [18, 46]: 81.8%
residual activity [19, 46]: 100%
residual activity [20, 46]: 93.2%
residual activity [21, 46]: 100%
residual activity [22, 46]: 91.5%
residual activity [23, 46]: 100%
residual activity [24, 46]: 83.2%
residual activity [25, 46]: 85.4%
residual activity [26, 46]: 75.6%
residual activity [27, 46]: 87.6%
residual activity [28, 46]: 29.2%
residual activity [29, 46]: 100%
residual activity [30, 46]: 100%
residual activity [31, 46]: 99%
residual activity (Angiopoietin-1 receptor; [46]): 3.1%
residual activity [32, 46]: 79.6%
residual activity [33, 46]: 89.6%
residual activity [34, 46]: 82.6%
EC50 [35]: 7.4 µM (not active)
IC50 [35]: 8.2 µM (not active)
residual activity [36, 46]: 61.9%
residual activity [37, 46]: 75.2%
residual activity [38, 46]: 76.2%
residual activity [39, 46]: 100%
residual activity [40, 46]: 100%
residual activity [41, 46]: 87.5%
residual activity [42, 46]: 82.4%
residual activity [43, 46]: 94.7%
residual activity [44, 46]: 100%
